Values joined by “and” are separate entries in the source; they are usually repeats but may differ in a detail not shown here. Equal values may be shown once. Read-outs that look alike come from different tables or passages of the source.
Columns and labels:
[1] = 2 mg/kg twice weekly subcutaneously; cited from earlier work
[2] = target: T1, human leukocyte elastase (human neutrophil elastase) (Homo sapiens, UniProt P08246); settings: cited from earlier work
T1 sequence (P08246 30-267): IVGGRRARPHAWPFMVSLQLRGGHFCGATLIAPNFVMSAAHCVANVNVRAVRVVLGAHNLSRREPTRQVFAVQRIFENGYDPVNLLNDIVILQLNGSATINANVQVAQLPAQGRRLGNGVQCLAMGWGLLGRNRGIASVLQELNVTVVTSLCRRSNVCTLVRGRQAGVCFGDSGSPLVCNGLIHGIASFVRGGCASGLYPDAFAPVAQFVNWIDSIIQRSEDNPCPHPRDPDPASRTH

[3] = system: IL-8, MCP-1 and MIP-1a; settings: cited from earlier work
[4] = system: allergen induced asthma; settings: intra-tracheal PPS; cited from earlier work
[5] = system: SARS-CoV-2; type: cell-based, Vero (Africa Green Monkey kidney epithelium); settings: for PFU/well: replicates
[6] = system: H1N1 PR-8 influenza strain; experiment: Influenza virus-induced ARDS mouse model (Study 1); type: in vivo, C57BL/6J mice
[7] = system: SARS-CoV-2; type: cell-based, Vero (Africa Green Monkey kidney epithelium); settings: for PFU/well: replicates; remark: listed apart in the source
[8] = system: alphavirus; settings: within 3 to 10 days post PPS treatment in infected animals; cited from earlier work
[9] = system: SARS-CoV-2; type: cell-based, Vero (Africa Green Monkey kidney epithelium); settings: for PFU/well: replicates; remark: listed apart in the source

pentosan polysulfate [PPS]
Effect on blood coagulation [1]: no lasting effect on blood coagulation | Activity on human leukocyte elastase [2]: antagonist | Cell movement induced by IL-8, MCP-1 and MIP-1a [3]: inhibits cell movement | Airway hyper-reactivity [4]: inhibited | Lung compliance [4]: increased | Total number of infiltrating leukocytes and neutrophils in the bronchoalveolar fluid [4]: significantly reduced | Total protein content in the bronchoalveolar fluid [4]: significantly reduced | PFU/well ([5]; PPS 12.5 μg/ml on Vero cells 30 min prior to infection with 50 PFU): 35 PFU/well and 33 PFU/well and 34 PFU/well and 40 PFU/well and 41 PFU/well and 39 PFU/well and 36 PFU/well and 37 PFU/well | PFU/well ([5]; PPS 25 μg/ml on Vero cells 30 min prior to infection with 50 PFU): 29 PFU/well and 31 PFU/well and 27 PFU/well and 25 PFU/well | PFU/well ([5]; PPS 200 μg/ml on Vero cells 30 min prior to infection with 50 PFU): 18 PFU/well (2×) and 16 PFU/well (2×) and 20 PFU/well and 21 PFU/well and 17 PFU/well and 19 PFU/well | Maximum inhibition of plaque formation ([5]; top dose of 200 μg/ml, cells treated 30 min prior to infection): 60% | Number of nuclei/mm^2 in lung sections ([6]; 3 mg/kg daily ip, Day 8, compared to vehicle treated animals): statistically significant reduction | Number of nuclei/mm^2 in lung sections ([6]; 3 mg/kg daily sc, Day 8, compared to vehicle treated animals): statistically significant reduction | Level of nuclei/mm^2 in infected PPS treated animals relative to uninfected animals ([6]; 3 mg/kg daily, Day 8): comparable to uninfected animals | Weight loss ([6]; 3 mg/kg daily, ip or sc, compared to infected animals treated with vehicle): reduced weight loss | Cellular infiltration in representative lung sections ([6]; 3 mg/kg ip or sc, Day 8, compared to vehicle treated animals): reduced cellular infiltration | Fibrotic response (collagen, Masson's Trichrome stain) ([6]; 3 mg/kg sc from Day 0 or Day 2 post-infection, Day 21, compared to vehicle): fibrotic response was reduced | Oxygen saturation levels ([6]; 3 mg/kg sc from Day 0 or Day 2 post-infection, measured Day 6 and Day 8, compared to vehicle treated infected animals): improved oxygen saturation levels | PFU/well ([7]; PPS 12.5 μg/ml incubated with virus inoculum 30 min prior to addition to Vero cells): 31 PFU/well and 33 PFU/well and 39 PFU/well and 34 PFU/well and 42 PFU/well and 38 PFU/well and 40 PFU/well and 37 PFU/well | PFU/well ([7]; PPS 25 μg/ml incubated with virus inoculum 30 min prior to addition to Vero cells): 25 PFU/well and 28 PFU/well (2×) and 31 PFU/well (2×) and 34 PFU/well and 33 PFU/well and 35 PFU/well | PFU/well ([7]; PPS 50 μg/ml incubated with virus inoculum 30 min prior to addition to Vero cells): 24 PFU/well and 21 PFU/well and 28 PFU/well and 31 PFU/well and 32 PFU/well and 30 PFU/well and 29 PFU/well and 26 PFU/well | PFU/well ([7]; PPS 100 μg/ml incubated with virus inoculum 30 min prior to addition to Vero cells): 19 PFU/well and 17 PFU/well and 23 PFU/well and 26 PFU/well and 22 PFU/well (2×) and 25 PFU/well and 27 PFU/well | PFU/well ([7]; PPS 200 μg/ml incubated with virus inoculum 30 min prior to addition to Vero cells): 16 PFU/well and 12 PFU/well and 20 PFU/well (2×) and 22 PFU/well and 21 PFU/well and 23 PFU/well and 24 PFU/well | Maximum inhibition of plaque formation ([7]; top dose of 200 μg/ml, virus treated 30 min prior to infection): 56% | Cytokine response (IL-1a; IL-2, IL-6, MIP1a and CCL2) [8]: reduction | PFU/well ([9]; PPS 12.5 μg/ml incubated with both virus and cells 30 min prior to infection): 18 PFU/well and 19 PFU/well and 17 PFU/well and 22 PFU/well and 20 PFU/well (2×) and 25 PFU/well and 26 PFU/well | PFU/well ([9]; PPS 25 μg/ml incubated with both virus and cells 30 min prior to infection): 18 PFU/well and 15 PFU/well (2×) and 20 PFU/well and 21 PFU/well and 19 PFU/well and 22 PFU/well and 17 PFU/well | PFU/well ([9]; PPS 50 μg/ml incubated with both virus and cells 30 min prior to infection): 12 PFU/well and 14 PFU/well (2×) and 15 PFU/well and 13 PFU/well and 18 PFU/well (2×) and 16 PFU/well | PFU/well ([9]; PPS 100 μg/ml incubated with both virus and cells 30 min prior to infection): 8 PFU/well and 12 PFU/well and 11 PFU/well and 7 PFU/well and 13 PFU/well and 10 PFU/well and 16 PFU/well and 9 PFU/well | PFU/well ([9]; PPS 200 μg/ml incubated with both virus and cells 30 min prior to infection): 6 PFU/well and 12 PFU/well and 10 PFU/well (2×) and 8 PFU/well and 11 PFU/well and 14 PFU/well and 13 PFU/well | Maximum inhibition of plaque formation ([9]; top dose of 200 μg/ml, virus and cells treated 30 min prior to infection): 77%
